Converted amounts (≈) assume the structure as drawn. Values belong to the molecule of their own block, whether it stands above or below them. Where a SMILES comes first, the peptide text is derived from it. Bridges are numbered along the chain shown (N, C = ends). Where no end group is shown, it is not given here.
What was measured:
[1] = target: T1, C3 (Homo sapiens, UniProt P01024); conditions: background statement; cited from earlier work
Target sequence in this assay (P01024 23-1663): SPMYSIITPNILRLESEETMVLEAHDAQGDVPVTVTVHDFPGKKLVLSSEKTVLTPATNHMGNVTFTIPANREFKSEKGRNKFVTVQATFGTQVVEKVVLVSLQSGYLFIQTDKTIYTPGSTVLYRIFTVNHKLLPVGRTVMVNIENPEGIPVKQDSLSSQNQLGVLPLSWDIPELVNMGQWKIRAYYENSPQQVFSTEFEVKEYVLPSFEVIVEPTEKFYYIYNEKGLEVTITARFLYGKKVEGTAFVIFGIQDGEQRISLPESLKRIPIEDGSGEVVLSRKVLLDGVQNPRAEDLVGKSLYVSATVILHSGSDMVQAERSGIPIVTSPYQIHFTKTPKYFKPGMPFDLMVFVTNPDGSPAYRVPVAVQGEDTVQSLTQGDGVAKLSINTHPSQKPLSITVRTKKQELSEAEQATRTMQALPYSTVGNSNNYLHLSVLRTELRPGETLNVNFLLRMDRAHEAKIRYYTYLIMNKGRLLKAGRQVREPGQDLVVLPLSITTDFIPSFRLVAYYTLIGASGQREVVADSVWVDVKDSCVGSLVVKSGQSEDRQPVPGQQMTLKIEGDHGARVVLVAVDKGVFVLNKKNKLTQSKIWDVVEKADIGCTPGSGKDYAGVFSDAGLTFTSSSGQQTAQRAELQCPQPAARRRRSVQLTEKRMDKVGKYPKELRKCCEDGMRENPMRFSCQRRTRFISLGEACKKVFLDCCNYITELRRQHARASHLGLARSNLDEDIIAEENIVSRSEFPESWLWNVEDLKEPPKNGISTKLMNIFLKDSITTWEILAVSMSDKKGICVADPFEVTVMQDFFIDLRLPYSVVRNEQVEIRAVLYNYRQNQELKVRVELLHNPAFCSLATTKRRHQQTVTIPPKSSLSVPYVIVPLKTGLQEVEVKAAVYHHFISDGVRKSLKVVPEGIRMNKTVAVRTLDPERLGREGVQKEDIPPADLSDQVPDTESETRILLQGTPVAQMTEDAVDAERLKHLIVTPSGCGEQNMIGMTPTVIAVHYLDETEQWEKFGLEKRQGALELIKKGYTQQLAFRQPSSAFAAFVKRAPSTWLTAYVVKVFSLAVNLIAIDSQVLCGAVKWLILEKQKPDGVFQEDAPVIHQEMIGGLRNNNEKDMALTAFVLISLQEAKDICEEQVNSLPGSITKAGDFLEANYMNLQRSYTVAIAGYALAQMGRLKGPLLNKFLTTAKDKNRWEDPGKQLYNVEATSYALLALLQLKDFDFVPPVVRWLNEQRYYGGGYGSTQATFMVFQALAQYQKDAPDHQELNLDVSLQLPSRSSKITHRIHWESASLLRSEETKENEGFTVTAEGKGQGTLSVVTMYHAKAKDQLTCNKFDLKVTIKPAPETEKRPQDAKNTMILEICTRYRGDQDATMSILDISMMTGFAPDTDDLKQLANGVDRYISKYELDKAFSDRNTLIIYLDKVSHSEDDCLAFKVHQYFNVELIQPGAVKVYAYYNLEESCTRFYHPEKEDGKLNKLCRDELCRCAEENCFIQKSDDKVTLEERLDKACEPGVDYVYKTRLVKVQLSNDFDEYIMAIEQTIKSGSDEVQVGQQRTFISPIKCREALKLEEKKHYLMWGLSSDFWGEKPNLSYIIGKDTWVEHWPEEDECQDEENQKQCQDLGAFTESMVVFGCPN

[2] = Solubility in DPBS (Table 1); assay type: physicochemical; conditions: Dulbecco's phosphate buffered saline; measured as OD (280 nm) at saturation
[3] = test system: laser-induced choroidal neovascularization (CNV); assay: Laser-induced choroidal neovascularization, nonhuman primate model of wet-type AMD, fluorescein angiography lesion grading; assay type: in vivo, macaque; conditions: for CNV lesion size, % of baseline: third Cp50-treated animal (K-2434)
Experimental: The effects of the compstatin analogue Cp50 (described above) were compared vs. vehicle, in a nonhuman primate model of wet-type age-related macular degeneration (AMD). In this model, laser-induced choroidal neovascularization (CNV) was performed in the eyes of macaques.
Laser-induced CNV was performed in both eyes of the macaques, as described below. Two weeks (Day 14) after laser photocoagulation, laser lesions were graded (Grade 1-4) via fluorescein angiograms (FA).
Under ketamine (15 mg/kg, i.m.) and xylazine (2 mg/kg, i.m), on Day 15, the eyes were intravitreally (IVT) injected with either vehicle, or compstatin Cp50. FA measurements were performed on weeks 4, 6, 8 10 and 12 (total of five times), following CNV.
Briefly, under light ketamine (10 mg/kg, i.m.) anesthesia, the pupils were dilated with tropicamide/phenylephrine (Mydrin-P® ophthalmic solution; Santen Pharmaceutical Co., Osaka, Japan). For the laser treatment, the macaques were anesthetized with a combination of ketamine (15 mg/kg, i.m.; Daiichi Sankyo Propharma Co., Tokyo, Japan) and xylazine (2 mg/kg, i.m.; Bayer Yakuhin, Osaka, Japan). A green laser (900 mW output; Green Scan Laser Photocoagulator, GYC-500, Nidek, Co., Gamagori, Japan) was applied to eight spots (about 75 μm, 0.1 s duration) around the macula in a grid pattern. The extent of CNV lesion was assessed using fluorescence angiography (FA) at predetermined time points.
On the day of lesion grading, under light ketamine (10 mg/kg, i.m.) anesthesia, the pupils were dilated with tropicamide/phenylephrine (Mydrin-P® ophthalmic solution), and then the macaques were anesthetized with a combination of ketamine (15 mg/kg, i.m.) and xylazine (2 mg/kg, i.m).
Fluorescence Angiography (FA) was used to check the extent of CNV in the back of the eye. Ten percent sodium fluorescein (Fluorescite®; 10 mg/kg, i.v.; Novartis, Tokyo, Japan) was injected and a fundus camera took pictures of the back of the eye at about 1, 3, and 5 min after i.v. injection.
Following randomization, under ketamine (15 mg/kg, i.m.) and xylazine (2 mg/kg, i.m), on Day 15, the eyes were intravitreally (IVT) injected with 50 μl of either vehicle, or Cp50. Before IVT injection, eyes were treated twice daily for three days with levofloxacin hydrate (0.5%; Cravit®, Santen Pharmaceutical Co.).
Under anesthesia, a solution of tropicamide/phenylephrine HCl (Mydrin®-P), levofloxacin hydrate (0.5%; Santen Pharmaceutical Co.), and oxybuprocaine HCl (0.4%; Santen Pharmaceutical Co.) was instilled before dosing.

[4] = target: T1, C3; assay: KD (Table 1); assay type: binding
[5] = target: T2, C3 protein (UniProt P01024 23-1663, limits assumed); assay: method not stated (Table 1; target C3 implied)
T2 construct: also called complement component C3; plasma protein C3
T2 sequence (P01024 23-1663 limits assumed): as the sequence (P01024 23-1663) above

Molecule: CC[C@H](C)[C@H](N)C(=O)N[C@H]1CSSC[C@@H](C(=O)N[C@H](C(N)=O)[C@@H](C)O)NC(=O)[C@H](CCCN=C(N)N)NC(=O)[C@H](Cc2cnc[nH]2)NC(=O)[C@H](Cc2cnc[nH]2)NC(=O)CNC(=O)[C@H](Cc2c[nH]c3ccccc23)NC(=O)[C@H](CC(=O)O)NC(=O)[C@H](CCC(N)=O)NC(=O)[C@H](C(C)C)NC(=O)[C@H](C(C)C)NC1=O [Compstatin]
binding affinity for C3 [1]: micromolar

solubility [2]: > 250 mg/mL
Molecule: CC[C@H](C)[C@H](NC(=O)[C@@H]1CSSC[C@H](NC(=O)[C@@H](NC(=O)[C@@H](N)Cc2ccc(O)cc2)[C@@H](C)CC)C(=O)N[C@@H]([C@@H](C)CC)C(=O)N[C@@H](Cc2c[nH]c3ccccc23)C(=O)N[C@@H](CCC(N)=O)C(=O)N[C@@H](CC(=O)O)C(=O)N[C@@H](Cc2c[nH]c3ccccc23)C(=O)NCC(=O)N[C@@H](CCC(=O)O)C(=O)N[C@@H](Cc2c[nH]cn2)C(=O)N[C@@H](CCCNC(=N)N)C(=O)N1)C(=O)N[C@@H](CCCCN)C(=O)N[C@@H](CCCCN)C(=O)N[C@@H](CCCCN)C(=O)O [Cp51] (HELM PEPTIDE1{Y.I.C.I.W.Q.D.W.G.E.H.R.C.I.K.K.K}$PEPTIDE1,PEPTIDE1,3:R3-13:R3$$$V2.0; N-terminus and C-terminus assumed)

Solubility DPBS [2]: 0.8 mg/mL (≈ 0.447 mM)
Molecule: CC[C@H](C)[C@H](NC(=O)[C@H](N)Cc1ccc(O)cc1)C(=O)N[C@H]1CSSC[C@@H](C(=O)N(C)[C@H](C(N)=O)[C@@H](C)CC)NC(=O)[C@H](CCCNC(=N)N)NC(=O)[C@H](Cc2c[nH]cn2)NC(=O)[C@H](C)NC(=O)CN(C)C(=O)[C@H](Cc2c[nH]c3ccccc23)NC(=O)[C@H](CC(=O)O)NC(=O)[C@H](CCC(N)=O)NC(=O)[C@H](Cc2cn(C)c3ccccc23)NC(=O)[C@H](C(C)C)NC1=O [Cp40, dTyr-Ile-[Cys-Val-1MeTrp-Gln-Asp-Trp-Sar-Ala-His-Arg-Cys]-mIle, reference compound]

solubility [2]: > 250 mg/mL | Kd [4]: 0.5 nM
Molecule: CC[C@H](C)[C@H](NC(=O)[C@@H]1CSSC[C@H](NC(=O)[C@@H](NC(=O)[C@@H](N)Cc2ccc(O)cc2)[C@@H](C)CC)C(=O)N[C@@H]([C@@H](C)CC)C(=O)N[C@@H](Cc2c[nH]c3ccccc23)C(=O)N[C@@H](CCC(N)=O)C(=O)N[C@@H](CC(=O)O)C(=O)N[C@@H](Cc2c[nH]c3ccccc23)C(=O)NCC(=O)N[C@@H](C)C(=O)N[C@@H](Cc2c[nH]cn2)C(=O)N[C@@H](CCCNC(=N)N)C(=O)N1)C(=O)N[C@@H](CCCCN)C(=O)N[C@@H](CCCCN)C(=O)N[C@@H](CCCCN)C(=O)O [Cp50] (HELM PEPTIDE1{Y.I.C.I.W.Q.D.W.G.A.H.R.C.I.K.K.K}$PEPTIDE1,PEPTIDE1,3:R3-13:R3$$$V2.0; N-terminus and C-terminus assumed)
mean Grade 4 lesion compared to eyes treated with vehicle ([3]; Weeks 4, 6, 8 and 12, intravitreal injection on Day 15): reduced | CNV lesion size, % of baseline ([3]; by week 6): 50% | CNV lesion size, % of baseline ([3]; by week 12): 25% | CNV lesion size ([3]; two Cp50-treated eyes, as early as week 4 post laser-induced CNV): decline | reduction of Grade 4 lesion ratios ([3]; two Cp50-treated eyes, from week 6 onwards until week 12): 100%

Kd [5]: 1 nM
Molecule: YICIWQDWGEHRCIKKK (disulfide 3-13) [Cp51]
